IC50 data for 16 compounds are collected here from US20260085067A1, “CYCLIC SULFONAMIDE RIBONUCLEOTIDE REDUCTASE (RNR) INHIBITORS AND USES THEREOF” (Boundless Bio, Inc., priority 2022, published 2026).

pIC50: −log10 of the molar value.

Test [1] concerns the target T1, RNR (RNR1:RNR2 1:1) (Homo sapiens, UniProt P23921).
T1 sequence (P23921 1-792): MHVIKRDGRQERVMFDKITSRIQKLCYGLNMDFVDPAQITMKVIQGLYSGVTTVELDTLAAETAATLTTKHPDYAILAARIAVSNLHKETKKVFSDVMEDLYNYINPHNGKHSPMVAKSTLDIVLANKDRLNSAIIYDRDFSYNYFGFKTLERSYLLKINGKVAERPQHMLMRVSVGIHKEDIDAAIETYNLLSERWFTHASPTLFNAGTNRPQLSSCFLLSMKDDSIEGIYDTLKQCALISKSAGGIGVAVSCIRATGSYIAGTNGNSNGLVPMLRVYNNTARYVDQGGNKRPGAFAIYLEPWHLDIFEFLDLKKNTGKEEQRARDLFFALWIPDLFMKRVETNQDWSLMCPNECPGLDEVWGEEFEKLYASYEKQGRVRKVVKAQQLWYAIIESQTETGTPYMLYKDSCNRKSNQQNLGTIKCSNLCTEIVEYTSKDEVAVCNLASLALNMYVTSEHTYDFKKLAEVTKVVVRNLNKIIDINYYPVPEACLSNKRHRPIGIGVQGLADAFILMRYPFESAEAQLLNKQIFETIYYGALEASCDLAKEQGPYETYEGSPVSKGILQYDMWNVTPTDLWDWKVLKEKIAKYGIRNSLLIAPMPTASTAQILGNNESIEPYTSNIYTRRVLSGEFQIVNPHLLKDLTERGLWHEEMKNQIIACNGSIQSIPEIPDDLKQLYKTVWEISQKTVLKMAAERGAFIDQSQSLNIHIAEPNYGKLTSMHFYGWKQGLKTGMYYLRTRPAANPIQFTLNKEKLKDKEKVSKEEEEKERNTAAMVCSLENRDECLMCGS
Kind of test: RNR enzyme activity, rapid-fire mass spectrometry (RF/MS) assay. Type of test: biochemical. The settings on record: [RNR] 50 nM, 1:1 RNR1:RNR2; CDP 5 μM; ATP 1 mM; 37° C., 45 min; compounds screened up to 50 μM. The method, then: A rapid-fire mass spectrometry (RF/MS) assay was used to assess RNR enzyme activity using a 384 well plate and a robotic platform.
The plate layout included two validated reference compounds (Triapine (3-AP) and Hydroxyurea (HU)): • A dose response in duplicate; top concentration: 5 μM (3-AP) and 250 μM (HU), semi-log dilutions. • Spike wells in triplicate randomly spotted at four concentrations: • 250 μM, 100 μM, 30 μM and 2 μM for HU • 5 μM, 2 μM, 0.6 μM and 0.04 μM for 3-AP
First, the multidrop pipes were saturated for 30 minutes with enzymatic solution. Then 30 μL of Stop solution was distributed in column 24. Next, 15 μL of enzyme was distributed in column 1 to 24. Next, a pre-incubation step of 15 minutes at room temperature occurred, followed by distribution of 15 μL of substrate solution (column 1 to 24). Next, the plate was incubated for 45 minutes at 37° C. 30 μL of Stop solution was then distributed to columns 1 to 23.
The final parameters for the enzyme reactions were: • Incubation: 37° C., 45 min • [CDP]: 5 μM; [ATP]: 1 mM; [NADPH]: No • [RNR]final: 50 nM with 1:1 (RNR1:RNR2) ratio • Final volume: 30 μL • Stop solution: 6% HCOOH in water

Test [2] has as its system pCHK1 (S345) in Colo320 DM cells. In words: Alphalisa assay, detection of pCHK1 (S345) in Colo320 DM cells. It is filed as cell-based, human. The settings on record: compound overnight (approximately 16 hours). How it is done:
Colo320 DM cells (ATCC #CCL-220, derived from human colorectal adenocarcinoma, Dukes' type C) were seeded on a […], cell culture treated assay plate at a density of 50,000 cells/well in 200 μL of RPMI-1640 media supplemented with 10% Fetal Bovine Serum and incubated at 37° C. overnight. The following day, test compound dilutions were added directly to the plated cells by a Tecan digital dispenser to a final DMSO concentration of <0.5%. and incubated at 37° C. overnight (approximately 16 hours). The following day all cell culture media was removed from the cells. 75 μL of 1×AlphaLisa lysis buffer was added to each well and plates were agitated on a shaker for 30 minutes at room temperature. The lysis of cells and detection of pCHK1 (S345) were performed with reagents contained within the AlphaLisa Sure Fire assay kit (Perkin Elmer #ALSU-PCHK1-A) according to the manufacturer's instructions. 10 μL of each lysate was then transferred to a white, 384-well assay plate (Perkin Elmer #6008280). 5 μL of Acceptor mix was then added to each well of lysate in the white, 384-well assay plate and incubated in the dark at room temperature for 60 minutes. 5 μL of Donor mix was then added to each well of the white, 384-well assay plate in subdued light and incubated at room temperature for 60 minutes. Plates were read on an Alpha Technology-compatible plate reader using standard AlphaLisa settings.

By pIC50 is commonly meant the IC50 on a negative log10 scale, so that one unit is a factor of ten. For the compound `Cc1ccc(F)c([C@@H](C)[C@@H](c2n[nH]c(=O)o2)N2CCOc3c(ccc(Cl)c3C(C)O)S2(=O)=O)c1C` (single isomer, unassigned) [Example 29], the negative-log IC50 (pIC50) in test [1] was 4.00 to 5.00; in test [2] it was below 4.30.

Consider `Cc1ccc(F)c([C@@H](C)[C@@H](c2n[nH]c(=O)o2)N2CCOc3c(ccc(Cl)c3[C@H](C)N(C)C)S2(=O)=O)c1C` (single isomer, unassigned) [Example 53], for which the pIC50 is above 7.70 in test [1] and 5.30 to 6.00 in test [2] (Homo sapiens, COLO 320DM).

On to `Cc1ccc(F)c([C@@H](C)[C@@H](c2n[nH]c(=O)o2)N2CCOc3c(ccc(Cl)c3[C@@H](C)N(C)C)S2(=O)=O)c1C` (single isomer, unassigned) [Example 54], for which the negative-log IC50 (pIC50) was above 7.70 in test [1] and 5.30 to 6.00 in test [2] (Homo sapiens, COLO 320DM).

For `Cc1ccc(F)c([C@@H](C)[C@@H](c2n[nH]c(=O)o2)N2CN(C3CCCOC3)c3cc(Cl)ccc3S2(=O)=O)c1C` (stereo in doubt) [Example 43, 5-((1S,2R)-1-(6-chloro-1,1-dioxido-4-((S)-tetrahydro-2H-pyran-3-yl)-3,4-dihydro-2H-benzo[e][1,2,4]thiadiazin-2-yl)-2-(6-fluoro-2,3-dimethylphenyl)propyl)-1,3,4-oxadiazol-2 (3H)-one], the pIC50 in test [1] is above 7.70; in test [2] (Homo sapiens, COLO 320DM), at least 6.00.

Consider `Cc1ccc(F)c([C@@H](C)[C@@H](c2n[nH]c(=O)o2)N2CN(C3CCCOC3)c3cc(Cl)ccc3S2(=O)=O)c1C` (stereo in doubt) [Example 44, 5-((1S,2R)-1-(6-chloro-1,1-dioxido-4-((R)-tetrahydro-2H-pyran-3-yl)-3,4-dihydro-2H-benzo[e][1,2,4]thiadiazin-2-yl)-2-(6-fluoro-2,3-dimethylphenyl)propyl)-1,3,4-oxadiazol-2 (3H)-one], for which the pIC50 in test [1] was above 7.70; in test [2] (Homo sapiens, COLO 320DM), at least 6.00.

For `Cc1ccc(F)c([C@@H](C)[C@@H](c2n[nH]c(=O)o2)N2CN(C(C)C)c3cc(Cl)ccc3S2(=O)=O)c1C` [Example 4, 5-((1S,2R)-1-(6-chloro-4-isopropyl-1,1-dioxido-3,4-dihydro-2H-benzo[e][1,2,4]thiadiazin-2-yl)-2-(6-fluoro-2,3-dimethylphenyl)propyl)-1,3,4-oxadiazol-2 (3H)-one], the pIC50 in test [1] was 6.00 to 7.00; in test [2] (Homo sapiens, COLO 320DM), 5.30 to 6.00.

On to `Cc1ccc(F)c([C@@H](C)[C@@H](c2n[nH]c(=O)o2)N2CN(C)c3cc(Cl)cnc3S2(=O)=O)c1C` [Example 5, 5-((1S,2R)-1-(6-chloro-4-methyl-1,1-dioxido-3,4-dihydro-2H-pyrido[3,2-e][1,2,4]thiadiazin-2-yl)-2-(6-fluoro-2,3-dimethylphenyl)propyl)-1,3,4-oxadiazol-2 (3H)-one], for which the pIC50 in test [1] is 7.00 to 7.70; in test [2] (Homo sapiens, COLO 320DM), 5.30 to 6.00.

Turning to `Cc1ccc(F)c([C@@H](C)[C@@H](c2n[nH]c(=O)o2)N2CN(C3CC3)c3cc(Cl)ccc3S2(=O)=O)c1C` [Example 6, 5-((1S,2R)-1-(6-chloro-4-cyclopropyl-1,1-dioxido-3,4-dihydro-2H-benzo[e][1,2,4]thiadiazin-2-yl)-2-(6-fluoro-2,3-dimethylphenyl)propyl)-1,3,4-oxadiazol-2 (3H)-one], the pIC50 in test [1] was 7.00 to 7.70; in test [2] (Homo sapiens, COLO 320DM), at least 6.00.

Consider `Cc1ccc(F)c([C@@H](C)[C@@H](c2n[nH]c(=O)o2)N2COc3cc(Cl)ccc3S2(=O)=O)c1C` [Example 7, 5-((1S,2R)-1-(6-chloro-1,1-dioxidobenzo[e][1,4,3]oxathiazin-2 (3H)-yl)-2-(6-fluoro-2,3-dimethylphenyl)propyl)-1,3,4-oxadiazol-2 (3H)-one], for which the pIC50 in test [1] is 7.00 to 7.70; in test [2] (Homo sapiens, COLO 320DM) it was at least 6.00.

Turning to `[2H]C([2H])([2H])N1CN([C@H](c2n[nH]c(=O)o2)[C@H](C)c2c(F)ccc(C)c2C)S(=O)(=O)c2ccc(Cl)cc21` [Example 9, 5-((1S,2R)-1-(6-chloro-4-(methyl-d3)-1,1-dioxido-3,4-dihydro-2H-benzo[e][1,2,4]thiadiazin-2-yl)-2-(6-fluoro-2,3-dimethylphenyl)propyl)-1,3,4-oxadiazol-2 (3H)-one], the negative logarithm of the IC50 (pIC50) is 7.00 to 7.70 in test [1] and at least 6.00 in test [2] (Homo sapiens, COLO 320DM).

Turning to `CCCN1CN([C@H](c2n[nH]c(=O)o2)[C@H](C)c2c(F)ccc(C)c2C)S(=O)(=O)c2ccc(Cl)cc21` [Example 10, 5-((1S,2R)-1-(6-chloro-1,1-dioxido-4-propyl-3,4-dihydro-2H-benzo[e][1,2,4]thiadiazin-2-yl)-2-(6-fluoro-2,3-dimethylphenyl)propyl)-1,3,4-oxadiazol-2 (3H)-one], the pIC50 is above 7.70 in test [1] and at least 6.00 in test [2] (Homo sapiens, COLO 320DM).

`Cc1cc2c(cc1Cl)N(C)CN([C@H](c1n[nH]c(=O)o1)[C@H](C)c1c(F)ccc(C)c1C)S2(=O)=O` [Example 12, 5-((1S,2R)-1-(6-chloro-4,7-dimethyl-1,1-dioxido-3,4-dihydro-2H-benzo[e][1,2,4]thiadiazin-2-yl)-2-(6-fluoro-2,3-dimethylphenyl)propyl)-1,3,4-oxadiazol-2 (3H)-one]: the pIC50 in test [1] was 7.00 to 7.70; in test [2] (Homo sapiens, COLO 320DM), 5.00 to 5.30.

Consider `Cc1ccc(F)c([C@@H](C)[C@@H](c2n[nH]c(=O)o2)N2CCN(C)c3cc(Cl)ccc3S2(=O)=O)c1C` [Example 13, 5-((1S,2R)-1-(7-chloro-5-methyl-1,1-dioxido-4,5-dihydrobenzo[f][1,2,5]thiadiazepin-2 (3H)-yl)-2-(6-fluoro-2,3-dimethylphenyl)propyl)-1,3,4-oxadiazol-2 (3H)-one], for which the negative-log IC50 (pIC50) is 7.00 to 7.70 in test [1] and 5.30 to 6.00 in test [2] (Homo sapiens, COLO 320DM).

For the compound `Cc1ccc(F)c([C@@H](C)[C@@H](c2n[nH]c(=O)o2)N2CC(=O)N(C)c3cc(Cl)ccc3S2(=O)=O)c1C` [Example 14, 5-((1S,2R)-1-(7-chloro-5-methyl-1,1-dioxido-4-oxo-4,5-dihydrobenzo[f][1,2,5]thiadiazepin-2 (3H)-yl)-2-(6-fluoro-2,3-dimethylphenyl)propyl)-1,3,4-oxadiazol-2 (3H)-one], the pIC50 was 7.00 to 7.70 in test [1] and 5.30 to 6.00 in test [2] (Homo sapiens, COLO 320DM).

In the case of `Cc1cc2c(cc1Cl)OCCN([C@H](c1n[nH]c(=O)o1)[C@H](C)c1c(F)ccc(C)c1C)S2(=O)=O` [Example 15, 5-((1S,2R)-1-(7-chloro-8-methyl-1,1-dioxido-3,4-dihydro-2H-benzo[b][1,4,5]oxathiazepin-2-yl)-2-(6-fluoro-2,3-dimethylphenyl)propyl)-1,3,4-oxadiazol-2 (3H)-one], the pIC50 in test [1] was 6.00 to 7.00; in test [2] (Homo sapiens, COLO 320DM), below 4.30.

As to `Cc1ccc(F)c([C@@H](C)[C@@H](c2n[nH]c(=O)o2)N2CCOc3cc(Cl)cnc3S2(=O)=O)c1C` [Example 16, 5-((1S,2R)-1-(7-chloro-1,1-dioxido-3,4-dihydro-2H-pyrido[3,2-b][1,4,5]oxathiazepin-2-yl)-2-(6-fluoro-2,3-dimethylphenyl)propyl)-1,3,4-oxadiazol-2 (3H)-one], the pIC50 was 7.00 to 7.70 in test [1] and 5.30 to 6.00 in test [2] (Homo sapiens, COLO 320DM).
